# Read-outs that look alike come from different tables or passages of the source. Where a SMILES comes first, the peptide text is derived from it. Where no end group is shown, it is not given here. [ ]: non-standard residue; d: D form.
# Legend:
# [1] = tested on: M. intracellulare; test: MIC against M. intracellulare; type: cell-based, Mycobacterium intracellulare; settings: M. intracellulare (ATCC 13950); CAAT media
# [2] = tested on: Achromobacter spp.; test: MIC by broth microdilution against Achromobacter spp.; type: cell-based; settings: Tables 8-12
# Procedure: (§1) MIC values were determined using a modification of the standard broth microdilution reference method defined by the Clinical and Laboratory Standards Institute (CLSI), CLSL. 2015. Methods for Dilution Antimicrobial Susceptibility Tests for Bacteria That Grow Aerobically; Approved Standard-10th Edition. Clinical and Laboratory Standards Institute, Wayne, PA. The modification was based on the replacement of Mueller Hinton Broth with either CAA media (with and without NaCl) or CAA supplemented with 2.5% human serum. MIC is the minimum concentration of peptide sufficient to suppress at least 80% of the bacterial growth compared to control.
# (§2) The MICs for were determined as described below using the broth microdilution method for meropenem, GN370, AM1, AM2, and AM3. The results are shown below in Tables 8-12.
# [3] = tested on: A. xylosoxidans; type: cell-based, Achromobacter xylosoxidans; settings: for MIC: A. xylosoxidans test organism of the sputum time-kill assay
# Procedure: as §1, §2
# The activity of GN370 and AM1 was evaluated against various bacterial isolates, including mucoid and α-hemolytic isolates of P. aeruginosa, MDR isolates, and carbapenem-resistant isolates.
# [4] = tested on: P. apista; type: cell-based, Pandoraea apista
# Procedure: The MBEC (after 2-hour treatments) was determined as described in Jones and Wozniak, PsI Produced by Mucoid Pseudomonas aeruginosa Contributes to the Establishment of Biofilms and Immune Evasion, Am. Soc. Microbiol. 2017, 8(3):e00864-17. Meropenem and tobramycin were included as controls and were both poorly active, with MBEC90 values of >256 μg/mL (data not shown).
# [5] = tested on: M. scrofulaceum; test: MIC against M. scrofulaceum; type: cell-based, Mycobacterium scrofulaceum; settings: M. scrofulaceum (ATCC 19981); CAAT media
# [6] = tested on: Mycobacterium species; type: cell-based
# [7] = tested on: B. cenocepacia; test: MIC by broth microdilution against B. cenocepacia; type: cell-based, Burkholderia cenocepacia; design: MIC Range: unit not given beside the values
# Procedure: as §1
# Based on these nine most prevalent strains, direct lytic agents, including GN370, AM1, AM2, and AM3, were evaluated against various isolates from each of the 9 strains. MICs and MBECs (Example 3) were determined, and a sputum inhibition test was conducted, as described below in Example 5.
# as §2
# [8] = tested on: M. tuberculosis; type: cell-based, Mycobacterium tuberculosis
# [9] = tested on: B. cenocepacia; test: Checkerboard synergy assay with meropenem against B. cenocepacia; type: cell-based, Burkholderia cenocepacia; settings: for MIC (dual agent): GN370 + meropenem; for FICmin / FICmin interpretation: GN370 with meropenem
# From the text: In some embodiments, the Chp peptides disclosed herein or active fragments thereof reduce the minimum inhibitory concentration (MIC) of an antibiotic in the presence and/or absence of human serum, pulmonary surfactant, and/or sputum, including human sputum and human sputum from a cystic fibrosis patient. Any known method to assess MIC may be used. In some embodiments, a checkerboard assay is used to determine the effect of a Chp peptide or active fragment thereof on antibiotic concentration. The checkerboard assay is based on a modification of the CLSI method for MIC determination by broth microdilution (See Clinical and Laboratory Standards Institute (CLSI), CLSI. 2015. Methods for Dilution Antimicrobial Susceptibility Tests for Bacteria That Grow Aerobically; Approved Standard-10th Edition. Clinical and Laboratory Standards Institute, Wayne, PA, which is herein incorporated by reference in its entirety and Ceri et al. 1999. J. Clin. Microbiol. 37: 1771-1776, which is also herein incorporated by reference in its entirety).
# Checkerboards are constructed by first preparing columns of e.g., a 96-well polypropylene microtiter plate, wherein each well has the same amount of antibiotic diluted 2-fold along the horizontal axis. […] The Chp peptide or active fragment thereof and antibiotic dilutions are then combined, so that each column has a constant amount of antibiotic and doubling dilutions of Chp peptide, while each row has a constant amount of Chp peptide and doubling dilutions of antibiotic. Each well thus has a unique combination of Chp peptide and antibiotic. Bacteria are added to the drug combinations at concentrations of 1×10^5 GFU/ml in CAA, for example, with or without human serum or pulmonary surfactant. […] Summation fractional inhibitory concentrations (ΣFICs) are calculated for each drug and the minimum ΣFIC value (ΣFICmin) is used to determine the effect of the Chp peptide/antibiotic combination.
# The synergy of GN370 with meropenem was evaluated against 3 different strains of P. aeruginosa and three different strains of B. cenocepacia.
# [10] = M. tuberculosis (ATCC 35817), (ADC, T) media
# [11] = M. tuberculosis strain TN8109_LB (MDR), 7H9 broth, 20 days
# [12] = M. tuberculosis strain TN8562_M33 (susc), 7H9 broth, 20 days
# [13] = M. tuberculosis strain TN10525_LL (MDR), 7H9 broth, 20 days
# [14] = M. tuberculosis strain TN10571_KY (MDR), 7H9 broth, 20 days
# [15] = M. tuberculosis strain TN12657_KQ15 (IS), 7H9 broth, 20 days
# [16] = M. tuberculosis strain TN13923_HD17 (susc), 7H9 broth, 20 days
# [17] = M. tuberculosis strain TN18349_W738 (susc), 7H9 broth, 20 days
# [18] = M. tuberculosis strain TN34503_001 (susc), 7H9 broth, 20 days
# [19] = Achromobacter xylosoxidans, N 11 (Table 26)
# [20] = P. apista (15), 2-hour treatment
# [21] = Burkholderia cenocepacia, N 15 (Table 26)
Molecule,MIC [1] [µg/mL],activity (MIC) against Achromobacter spp. [2],MIC50 ([3]; A. xylosoxidans isolates) [µg/mL],MIC90 ([3]; A. xylosoxidans isolates) [µg/mL],MIC [3],MBEC50 [4] [µg/mL],MBEC90 [4] [µg/mL],MIC [5] [µg/mL],activity (MIC) against Mycobacterium species [6],MIC50 ([7]; B. cenocepacia isolates) [µg/mL],MIC90 ([7]; B. cenocepacia isolates) [µg/mL],"MIC [8, 10] [µg/mL]","MIC [8, 11] [µg/mL]","MIC [8, 12] [µg/mL]","MIC [8, 13] [µg/mL]","MIC [8, 14] [µg/mL]","MIC [8, 15] [µg/mL]","MIC [8, 16] [µg/mL]","MIC [8, 17] [µg/mL]","MIC [8, 18] [µg/mL]",also measured
CC[C@H](C)[C@H](NC(=O)[C@@H](CCCNC(=N)N)NC(=O)[C@H](Cc1ccccc1)NC(=O)CNC(=O)CNC(=O)[C@@H](CCCNC(=N)N)NC(=O)[C@H](CCSC)NC(=O)[C@@H]1CCCN1C(=O)[C@@H](CCCNC(=N)N)NC(=O)[C@H](C)NC(=O)[C@@H](CCCNC(=N)N)NC(=O)[C@H](CC(C)C)NC(=O)[C@H](CC(N)=O)NC(=O)[C@@H](CCCNC(=N)N)NC(=O)[C@@H](CCCCN)NC(=O)[C@@H](CCCCN)NC(=O)[C@@H](NC(=O)[C@H](CC(N)=O)NC(=O)[C@@H](NC(=O)[C@H](C)NC(=O)CNC(=O)[C@@H](CCCNC(=N)N)NC(=O)[C@@H](NC(=O)[C@H](Cc1ccccc1)NC(=O)[C@@H](NC(=O)[C@@H](CCCCN)NC(=O)[C@@H](CCCNC(=N)N)NC(=O)[C@H](CO)NC(=O)[C@@H](CCCCN)NC(=O)[C@@H](CCCCN)NC(=O)[C@@H](CCCCN)NC(=O)[C@H](CO)NC(=O)[C@H](CC(C)C)NC(=O)[C@@H](CCCCN)NC(=O)[C@@H](CCCNC(=N)N)NC(=O)[C@@H](CCCNC(=N)N)NC(=O)[C@@H](CCCCN)NC(=O)[C@@H](N)CCSC)[C@@H](C)CC)[C@@H](C)O)C(C)C)C(C)C)C(=O)O [AM3] (H-M[dK][dR][dR][dK]LS[dK][dK][dK]S[dR][dK]IFT[dR]GAVNV[dK][dK][dR]NL[dR]A[dR]PM[dR]GGF[dR]I-OH; N-terminus and C-terminus assumed),2,variably active,2,16,AM3 (MIC = 0.5),8,8,2,highest activity,> 128,> 128,8,16,16,64,16,16,32,4,16,MBEC Range [4]: 4 to 16 µg/mL
"C[C@@H](O)[C@H]1C(=O)N2C(C(=O)O)=C(S[C@@H]3CN[C@H](C(=O)N(C)C)C3)[C@H](C)[C@H]12 [meropenem, reference compound]",–,–,4,> 32,Meropenem (MIC = 0.25),–,–,–,–,4,8,–,–,–,–,–,–,–,–,–,MIC (alone) ([9]; B. cenocepacia (CFS 2135)): 32 µg/mL; MIC (dual agent) ([9]; B. cenocepacia (CFS 2135)): 32 µg/mL; MIC (alone) ([9]; B. cenocepacia (CFS 2138)): 64 µg/mL; MIC (dual agent) ([9]; B. cenocepacia (CFS 2138)): 64 µg/mL; MIC (alone) ([9]; B. cenocepacia (CFS 2142)): 64 µg/mL; MIC (dual agent) ([9]; B. cenocepacia (CFS 2142)): 32 µg/mL; MIC Range ([7]; B. cenocepacia isolates): 2-32
MRLKMARRRYRLPRRRSRRLFSRTALRMHPRNRLRRIMRGGIRF [AM1],0.5,highly active,0.5,2,AM1 (MIC = 0.5),8,16,0.5,highest activity,> 128,> 128,8,4,4,8,2,16,16,0.5,0.5,"AM1 MIC50 [3]: 0.5 µg/mL; AM1 MIC90 [3]: 1 µg/mL; MIC50 [3]: 1 µg/mL; MIC90 [3]: 4 µg/mL; MIC Range ([3]; A. xylosoxidans isolates, in µg/mL): 0.016-4; MIC Range ([3]; MDR A. xylosoxidans isolates (n = 14), in µg/mL): 0.5-4; AM1 MIC Range ([3]; carbapenem-resistant A. xylosoxidans isolates (n = 7), in µg/mL): 0.06225-1"
M[dR]L[dK]MA[dR][dR][dR]Y[dR]LP[dR][dR][dR]S[dR][dR]LFS[dR]TAL[dR]MHP[dR]N[dR]L[dR][dR]IM[dR]GGI[dR]F [AM2],0.5,variably active,2,64,AM2 (MIC = 1),8,16,16,highest activity,> 128,> 128,8,2,2,8,4,4,8,2,8,–
"GN370: lysin-AMP construct, SEQ ID NO: 149: MIDR, FIRL and NPTH moieties N-terminal to GN202 lysin (protein, GN370 lysin) MIDRFIRLNPTHGPRRPRRPGRRAPVRTSQRGIDLIKSFEGLRLSAYQDSVGVWTIGYGTTRGVTRYMTITVEQAERMLSNDIQRFEPELDRLAKVPLNQNQWDALMSFVYNLGAANLASSTLLDLLNKGDYQGAADQFPHWVNAGGKRLDGLVKRRAAERALFLEPLS",–,–,8,> 32,GN370 (MIC = 0.25),–,–,–,–,> 32,> 32,–,–,–,–,–,–,–,–,–,"MIC50 [3, 19]: >64 µg/mL; MIC90 [3, 19]: >64 µg/mL; MBEC50 [4, 20]: 32 µg/mL; MBEC90 [4, 20]: 64 µg/mL; MBEC Range [4, 20]: 8 to 64 µg/mL; MIC (alone) ([9]; B. cenocepacia (CFS 2135)): 128 µg/mL; MIC (dual agent) ([9]; B. cenocepacia (CFS 2135)): 64 µg/mL; FICmin ([9]; B. cenocepacia (CFS 2135)): 1.5; FICmin interpretation ([9]; B. cenocepacia (CFS 2135)): (Indifferent); MIC (alone) ([9]; B. cenocepacia (CFS 2138)): 256 µg/mL; MIC (dual agent) ([9]; B. cenocepacia (CFS 2138)): 128 µg/mL; FICmin ([9]; B. cenocepacia (CFS 2138)): 1.5; FICmin interpretation ([9]; B. cenocepacia (CFS 2138)): (Indifferent); MIC (alone) ([9]; B. cenocepacia (CFS 2142)): 256 µg/mL; MIC (dual agent) ([9]; B. cenocepacia (CFS 2142)): 128 µg/mL; FICmin ([9]; B. cenocepacia (CFS 2142)): 1; FICmin interpretation ([9]; B. cenocepacia (CFS 2142)): (Additive); synergy with meropenem ([9]; three strains of B. cenocepacia): not against B. cenocepacia; MIC50 [7, 21]: >64 µg/mL; MIC90 [7, 21]: >64 µg/mL"

# From patent US20240181022A1, “AMURINS LYSINS, AND LYSIN-ANTIMICROBIAL PEPTIDE (AMP) CONSTRUCTS ACTIVE AGAINST GRAM-NEGATIVE BACTERIA” (priority 2021, published 2024)
